According to patent US20230201235A1, “INHIBITION OF NIDOVIRUSES THAT ENCODE NSP15” (The University of Chicago, priority 2020, published 2023):

Assays:
SARS-CoV-2 Nsp15 [1] = biological target: T1, SARS-CoV-2 Nsp15 (Severe acute respiratory syndrome coronavirus 2, UniProt P0DTD1); assay type: binding; details: co-crystal structures, Table 1
Nsp15 [2] = biological target: T2, Nsp15 (Severe acute respiratory syndrome coronavirus 2, UniProt P0DTD1); experiment: Nsp15 differential scanning fluorimetry (DSF) assay; assay type: binding; details: 10 μM Nsp15, 1 mM ligand, 10 mM MnCl2; for melting temperature (Tm) of Nsp15 in presence of ligand: same Tm as control
Description: The Nsp15 differential scanning fluorimetry (DSF) assays were performed in a buffer 20 mM Tris pH 7.5, 100 mM NaCl, 1 mM TCEP that was supplemented with SYPRO™ Orange protein gel stain (Invitrogen, Carlsbad, Calif.) to 5× final concentration. 10 μM of the Nsp15 was used with the addition of each of 1 mM of tipiracil, 5′GpU, 5′UMP, 3′UMP, and TMP to get final molar ratio of protein to ligand 1:100. Additionally, the samples with ligands were supplemented with 10 mM MnCl2. After 30 min of incubation of samples at room-temperature, fluorescence measurements were done using CFX CONNECT™ Real-Time System (BioRad, Hercules, Calif.). Fluorescent signal was detected with temperature rate 1° C. per 60 sec. Samples were measured in triplicate, and the representative standard deviation of measurements are depicted for Nsp15 control sample and complex of the Nsp15 with addition of tipiracil.

SARS-CoV-2 Nsp15 [3] = biological target: T1, SARS-CoV-2 Nsp15; experiment: Radioactivity-based endoribonuclease assay; assay type: biochemical
Nsp15 [4] = biological target: T2, Nsp15; experiment: Fluorescence-based endoribonuclease assay; assay type: biochemical, SARS-CoV-2
Description: The oligonucleotide dArUdAdA with 5′-6-FAM and 3′-6-TAMRA was synthetized by GenScript Biotech (Piscataway, N.J.). The concentration of 0.5 μM substrate was used with 2 μM Nsp15 in a buffer containing 20 mM HEPES at pH 7.8, 100 mM NaCl, and 5 mM MnCl2. Detection of the emission of FAM fluorescence signal was done on CFX CONNECT™ Real-Time System (Bio-Rad Laboratories, Hercules, Calif.).
Cleavage of oligonucleotide dArUdAdA with 5′-6-FAM and 3′-6-TAMRA substrate was tested using polyacrylamide gel electrophoresis. The concentration of labeled substrate was […], and the Nsp15 concentration varied to achieve different molar ratios of substrate to Nsp15. Samples were mixed in a buffer with 20 mM HEPES at pH 7.8, 100 mM NaCl, and 5 mM MnCl2. After 10 minutes of incubation, samples were loaded on NUPAGE Tris-Acetate 3-8% gel, and the electrophoresis was done on 80 V for 1 h. The detection of FAM emission on gel was performed using the Gel DOC™ EZ System (Bio-Rad Laboratories, Hercules, Calif.).

SARS-CoV-2 = experiment: Whole cell assays: spike protein immunostaining and viral RNA qRT-PCR; assay type: cell-based
A549-hACE2 cells = details: 1-50 μM

Compound | binding to the active site of Nsp15 in the crystal structure (SARS-CoV-2 Nsp15 [1]) | melting temperature (Tm) of Nsp15 in presence of ligand (Nsp15 [2]) | shift of Nsp15 denaturation profile to higher temperatures (Nsp15 [2]; versus control) | IC50 (SARS-CoV-2 Nsp15 [3]) | inhibition of cleavage reaction at higher Mn2+ concentration (SARS-CoV-2 Nsp15 [3]; octamer RNA, higher Mn2+ ion concentration (15 mM MnCl2)) | IC50 (Nsp15 [4]) | inhibition of virus (spike protein and RNA expression) (SARS-CoV-2) | effect on viability of cells (A549-hACE2 cells)
O=c1ccn([C@@H]2O[C@H](CO)[C@@H](OP(=O)(O)O)[C@H]2O)c(=O)[nH]1 [3′UMP, 3′-uridylic acid] | binds directly in the active site of Nsp15 | approximately 60.5 °C | – | – | – | – | – | –
uridine 2′,3′-vanadate [UV] | binds directly in the active site of Nsp15 | – | – | – | – | – | – | –
N=C1CCCN1Cc1[nH]c(=O)[nH]c(=O)c1Cl [tipiracil, 5-chloro-6-[(2-imino-1-pyrrolidinyl)methyl]-2,4(1H,3H)-pyrimidinedione] | binds directly in the active site of Nsp15 | approximately 60.5 °C | 0.5 °C | 7.5 µM | no inhibition | 72 µM | modest | did not affect the viability of cells
Cc1cn([C@H]2C[C@H](OP(=O)(O)O)[C@@H](CO)O2)c(=O)[nH]c1=O [3′TMP] | – | approximately 60.5 °C | – | – | – | – | – | –
O=c1ccn([C@@H]2O[C@H](COP(=O)(O)O)[C@@H](O)[C@H]2O)c(=O)[nH]1 [5′UMP, 5′-uridylic acid] | binds directly in the active site of Nsp15 | approximately 60.5 °C | – | – | – | – | – | –
